For 15 compounds, EC50 and IC50 results are on record in patent US11964973B2 (priority 2019, dated 2024).

Structures are written as SMILES. Where two headings read alike, the source gives them in different places.

One may read the IC50 as the concentration that inhibits the measured activity by half.

For assay [1], the system named is Human venous whole blood (IFN-γ). In words: Human whole blood IFN-γ assay. It counts as cell-based. The method, then: Assay 10: Human Whole Blood IFN-γ Assay
Human venous whole blood (22.5 μL per well), obtained from healthy donors, was pre-treated with compounds for one hour at 37° C. in a humidified 95% air/5% CO2 incubator. The blood was stimulated with 2.5 μL anti-human CD3 and anti-CD28 mAb at a final concentration of 1 μg/mL each for 24 hours at 37° C. IFN-γ in the supernatants was measured using AlphLISA kit (Cat #AL217).

Assay [2] relates to naïve human CD8 T cells (IFN-γ). In words: Human CD8 T cells IFN-γ assay. It counts as cell-based. To be noted: T-cell. The procedure:
Assay 8: Human CD8 T Cells IFN-γ Assay
Frozen naïve human CD8 T cells were thawed in AIM-V media, incubated for 2 h in 37° C., and counted. The 384-well tissue culture plate was coated overnight at 4° C. with 20 μL anti-human CD3 at 0.05 μg/mL in PBS, which was removed off the plate before 40,000 cells per 40 microliters CD8 T cells with 0.1 μg/mL soluble anti-human CD28 were added to each well. The compounds were transferred using an Echo liquid handler to the cell plate immediately after the cells were plated. After 20 h incubation at 37° C. incubator, 3 microliters per well supernatants transferred into a new 384-well white assay plate for cytokine measurement.
Interferon-γ (IFN-γ) was quantitated using the AlphLISA kit (Cat #AL217) as described by the manufacturer manual (Perkin Elmer). The counts from each well were converted to IFN-γ concentration (pg/mL).

The test system of assay [3] is OT-1 CD8+ T cells with SIINFEKL-loaded MC38 tumor cells. Nature of the assay: Murine cytotoxic T lymphocyte assay (IFN-γ). It counts as cell-based, mouse. The conditions noted are these: Mus musculus, MC-38; for EC50: murine cytotoxic T lymphocyte assay, read-out: msCTL; for IC50: murine cytotoxic T lymphocyte, IFN-γ, read-out: msCTL INFg IC50. The text has this:
Assay 6: Murine Cytotoxic T Lymphocyte Assay
An antigen-specific cytolytic T-cell (CTL) assay was developed to evaluate functionally the ability of DGKα and DGKζ inhibitors to enhance effector T cell mediated tumor cell killing activity. CD8+ T-cells isolated from the OT-1 transgenic mouse recognize antigen presenting cells, MC38, that present the ovalbumin derived peptide […]. Recognition of the cognate antigen initiates the cytolytic activity of the OT-1 antigen-specific CD8+ T cells.
Functional CTL cells were generated as follows: OT-1 splenocytes from 8-12 week old mice were isolated and expanded in the presence of the […] peptide at 1 μg/mL and mIL2 at 10 U/mL. After three days, fresh media with […] was added. On day 5 of the expansion, the CD8+ T cells were isolated and ready for use. Activated CTL cells may be stored frozen for 6 months. Separately, one million MC38 tumor cells were pulsed with 1 μg/mL of […]-OVA peptide for 3 hours at 37° C. The cells were washed (3×) with fresh media to remove excess peptide. Finally, CTL cells that were pretreated with DGK inhibitors for 1 hour in a 96-well U bottom plate were combined with the antigen loaded MC38 tumor cells at a 1:10 ratio. The cells were then spun at 700 rpm for 5 min and placed in an incubator overnight at 37° C. After 24 hours, the supernatant was collected for analysis of IFN-γ cytokine levels by AlphaLisa purchased from Perkin Elmer.

The target of assay [4] is T1, DGKα (Homo sapiens (Human), UniProt P23743). In words: biochemical. It counts as biochemical. The conditions noted are these: liposome (LIPGLO) assay; read-out: DGKα LIPGLO IC50.
T1 sequence (P23743 whole entry, looked up): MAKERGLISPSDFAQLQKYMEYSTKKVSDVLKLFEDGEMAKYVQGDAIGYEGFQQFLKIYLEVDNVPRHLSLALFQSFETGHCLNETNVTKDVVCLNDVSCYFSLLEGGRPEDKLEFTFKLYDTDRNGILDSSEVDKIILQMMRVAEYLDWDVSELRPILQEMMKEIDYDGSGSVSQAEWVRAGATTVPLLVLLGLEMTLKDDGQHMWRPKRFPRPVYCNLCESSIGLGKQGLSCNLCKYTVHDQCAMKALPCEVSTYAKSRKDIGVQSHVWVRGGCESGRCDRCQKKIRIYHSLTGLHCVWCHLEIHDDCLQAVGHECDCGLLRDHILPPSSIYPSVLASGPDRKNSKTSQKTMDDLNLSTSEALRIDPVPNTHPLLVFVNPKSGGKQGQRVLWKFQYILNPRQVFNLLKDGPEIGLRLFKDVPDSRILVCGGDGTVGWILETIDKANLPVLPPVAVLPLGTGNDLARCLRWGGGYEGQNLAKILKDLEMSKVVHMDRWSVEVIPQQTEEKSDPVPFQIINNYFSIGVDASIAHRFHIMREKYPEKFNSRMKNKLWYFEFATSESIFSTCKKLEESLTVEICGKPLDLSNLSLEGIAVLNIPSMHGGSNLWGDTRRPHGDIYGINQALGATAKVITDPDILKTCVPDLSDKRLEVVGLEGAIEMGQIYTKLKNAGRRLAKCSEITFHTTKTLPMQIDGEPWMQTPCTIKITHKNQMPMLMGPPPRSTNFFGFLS
The target in another assay is human DGKζ (Homo sapiens (Human), UniProt Q13574). Nature of the assay: biochemical. It counts as biochemical. The conditions noted are these: liposome (LIPGLO) assay; read-out: DGKζ LIPGLO IC50.
Sequence of human DGKζ (Q13574 whole entry, looked up): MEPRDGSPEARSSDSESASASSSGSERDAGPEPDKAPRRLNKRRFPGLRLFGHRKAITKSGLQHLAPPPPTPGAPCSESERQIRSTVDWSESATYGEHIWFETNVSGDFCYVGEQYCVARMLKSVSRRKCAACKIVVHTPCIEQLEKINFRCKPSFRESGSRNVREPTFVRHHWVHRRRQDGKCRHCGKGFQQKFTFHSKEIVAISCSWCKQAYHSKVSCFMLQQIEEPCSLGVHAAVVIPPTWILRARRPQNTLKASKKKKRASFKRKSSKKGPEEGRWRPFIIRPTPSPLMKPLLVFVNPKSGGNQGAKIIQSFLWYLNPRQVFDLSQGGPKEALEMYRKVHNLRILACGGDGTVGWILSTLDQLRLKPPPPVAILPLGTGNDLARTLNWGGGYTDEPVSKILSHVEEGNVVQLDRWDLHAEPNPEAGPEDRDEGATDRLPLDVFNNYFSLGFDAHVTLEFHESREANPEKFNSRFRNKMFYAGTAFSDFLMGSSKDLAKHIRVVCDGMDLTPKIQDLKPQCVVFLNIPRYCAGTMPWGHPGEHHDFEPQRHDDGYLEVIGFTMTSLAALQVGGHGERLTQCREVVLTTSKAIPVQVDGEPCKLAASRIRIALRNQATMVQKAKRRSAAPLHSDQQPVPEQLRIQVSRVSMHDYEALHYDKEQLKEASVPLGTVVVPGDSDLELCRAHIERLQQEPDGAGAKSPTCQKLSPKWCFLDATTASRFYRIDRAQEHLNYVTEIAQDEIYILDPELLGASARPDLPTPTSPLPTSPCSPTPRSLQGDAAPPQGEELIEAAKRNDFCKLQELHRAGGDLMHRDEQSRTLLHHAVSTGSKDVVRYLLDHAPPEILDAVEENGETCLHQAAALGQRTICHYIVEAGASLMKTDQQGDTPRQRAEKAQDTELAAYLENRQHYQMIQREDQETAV
The target of assay [5] is T1, DGKα. Nature of the assay: DGKα ADPGLO assay. In kind it is biochemical.
Another assay has as its system naïve human CD8 T cells. Nature of the assay: CellTiter-Glo CD8 T cell proliferation assay. To be noted: Homo sapiens, read-out: CD8 GLO Normalized EC50. It counts as cell-based. In short, it runs like this: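 Thawed naïve human CD8 T cells (20 k/well) were stimulated with plate-bound anti-CD3 (0.1 μg/mL coating) and 0.5 μg/ml soluble anti-CD28, with compounds added right after plating. After 72 h at 37° C, proliferation was read by CellTiter-Glo luminescence. The signal from stimulated cells was taken as background.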
For orientation: In ATP-based viability assays light output follows the ATP content of the culture.

The target in the next assay is Human DGKα(9-727) (Homo sapiens (Human), UniProt P23743). In words: biochemical. To be noted: liposome (LIPGLO) assay; Table A; read-out: DGKα LIPGLO IC50.
Sequence of Human DGKα(9-727) (P23743 whole entry, looked up): as the sequence (P23743 whole entry, looked up) above
Another assay has as its target full length human DGKζ (Homo sapiens (Human), UniProt Q13574). Nature of the assay: In vitro DGK inhibition assay, Method B (DGKζ LIPGLO, extruded liposomes). It counts as biochemical. The conditions noted are these: liposome (LIPGLO) assay; read-out: DGKζ LIPGLO IC50.
Assay [6] has as its system human venous whole blood, CD8 positive population (pERK). Nature of the assay: DGK human whole blood pERK assay. In kind it is cell-based. An outline of the steps: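 Read-out is the pERK-positive fraction of CD8+ cells measured by flow cytometry. Donor venous blood (heparin) saw compound for one hour at 37° C before a 15-minute anti-CD3 challenge (1 μg/mL final) with cross-linking anti-mouse IgG.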

Setting [7] is: Homo sapiens, human whole blood IFN-γ, read-out: INFg Whole Blood.
The mark [8] stands for this setting: human whole blood, anti-CD3 plus anti-CD28, 24 hours, read-out: INFg Whole Blood Normalized Agonist EC50.
[9] abbreviates: read-out: HuCD8 INFG Normalized EC50.
The mark [10] stands for this setting: Homo sapiens, 24 h, human whole blood, anti-CD3 plus anti-CD28, 24 hours, read-out: INFg Whole Blood Normalized Agonist EC50.

Sequence of full length human DGKζ (Q13574 whole entry, looked up): as the sequence (Q13574 whole entry, looked up) above

Turning to `Cn1c(=O)c(F)c(N2CCC(Oc3ccc(OC(F)(F)F)cc3)CC2)c2nc(C#N)ccc21` [Example 237, 7-fluoro-5-methyl-6-oxo-8-(4-(4-(trifluoromethoxy)phenoxy)piperidin-1-yl)-5,6-dihydro-1,5-naphthyridine-2-carbonitrile], the results for the EC50 in assay [1] (setting [7]), in [2] (read-out: HuCD8 INFG) and in assay [3] were 3.3 µM, 0.34 µM and 0.2 µM, respectively.

As to `Cn1c(=O)c(Cl)c(N2CCC(Oc3ccc(OC(F)(F)F)cc3)CC2)c2nc(C#N)ccc21` [Example 238, 7-chloro-5-methyl-6-oxo-8-(4-(4-(trifluoromethoxy)phenoxy)piperidin-1-yl)-5,6-dihydro-1,5-naphthyridine-2-carbonitrile], the EC50 in assay [2] (read-out: HuCD8 INFG) worked out at 0.16 µM.

For the compound `C[C@@H]1CN(c2cc(=O)n(C)c3ccc(C#N)nc23)CC[C@H]1Oc1cccc(C2CC2)c1` (single isomer, unassigned) [Example 92], the IC50 on DGKα [4] is 0.028 µM; on human DGKζ it was 16 µM; against DGKα [5], 0.00051 µM. Besides, the EC50 in [1] (setting [8]) worked out at 0.91 µM.

Take `CCC(C)(C)c1ccc(O[C@@H]2CCN(c3cc(=O)n(C)c4ccc(C#N)nc34)C[C@H]2C)cc1` (single isomer, unassigned) [Example 83]: the results for the IC50 at DGKα [4] and on human DGKζ were 0.28 µM and 5.8 µM, respectively. Besides, the EC50 was determined as 0.36 µM in assay [1] (setting [8]) and 0.0025 µM in assay [2] (setting [9]).

For `Cn1c(=O)c(Br)c(N2CCC(Oc3ccc(OC(F)(F)F)cc3)CC2)c2nc(C#N)ccc21` [Example 239, 7-bromo-5-methyl-6-oxo-8-(4-(4-(trifluoromethoxy)phenoxy)piperidin-1-yl)-5,6-dihydro-1,5-naphthyridine-2-carbonitrile], the EC50 in [2] (read-out: HuCD8 INFG) amounted to 0.82 µM.

For the compound `Cn1c(=O)c(C#N)c(N2CCC(Oc3ccc(C(C)(C)C)cc3)CC2)c2nc(Cl)ccc21` [Example 15, 4-(4-(4-(tert-butyl)phenoxy)piperidin-1-yl)-6-chloro-1-methyl-2-oxo-1,2-dihydro-1,5-naphthyridine-3-carbonitrile], the figures for the IC50 (on DGKα [4]; at human DGKζ; in assay [3]) were 0.51 µM, 7.4 µM and 0.29 µM, respectively. In addition, the EC50 in assay [1] (setting [10]) was determined as 7.6 µM; in [2] (setting [9]), 0.87 µM; in the assay on naïve human CD8 T cells, 0.32 µM.

Turning to `COc1cc(-c2c(N3CCC(Oc4ccc(OC(F)(F)F)cc4)CC3)c3nc(C#N)ccc3n(C)c2=O)ccn1` [Example 241, 7-(2-methoxypyridin-4-yl)-5-methyl-6-oxo-8-(4-(4-(trifluoromethoxy)phenoxy)piperidin-1-yl)-5,6-dihydro-1,5-naphthyridine-2-carbonitrile], the EC50 worked out at 10 µM in [1] (setting [7]), 1.3 µM in [2] (read-out: HuCD8 INFG) and 0.57 µM in assay [3].

For `C[C@@H]1CN(c2cc(=O)n(C)c3ccc(C#N)nc23)CC[C@H]1Oc1ccc(OC(C)(C)C)cc1` [Example 85, 8-((3R,4R)-4-(4-(tert-butoxy)phenoxy)-3-methylpiperidin-1-yl)-5-methyl-6-oxo-5,6-dihydro-1,5-naphthyridine-2-carbonitrile], the IC50 at DGKα [4] is 0.08 µM. Moreover, the EC50 in [1] (setting [8]) worked out at 2.2 µM; in assay [2] (setting [9]), 0.61 µM.

On to `Cn1c(=O)c(C#N)c(N2CCC(Oc3ccccc3Cl)CC2)c2nc(Cl)ccc21` [Example 18, 6-chloro-4-(4-(2-chlorophenoxy)piperidin-1-yl)-1-methyl-2-oxo-1,2-dihydro-1,5-naphthyridine-3-carbonitrile], for which the 50% inhibitory concentration (IC50) at DGKα [4] is 2.6 µM; on human DGKζ, 13 µM; in [3] it was 1.5 µM. For the same compound, the EC50 in assay [1] (setting [10]) came to 10 µM; in [2] (setting [9]), 0.19 µM; with naïve human CD8 T cells, 0.079 µM.

With `Cc1ccc(OC2CCN(c3c(C#N)c(=O)n(C)c4ccc(Cl)nc34)CC2)cc1` [Example 21, 6-chloro-1-methyl-2-oxo-4-(4-(p-tolyloxy)piperidin-1-yl)-1,2-dihydro-1,5-naphthyridine-3-carbonitrile], the figures for the 50% inhibitory concentration (IC50) (on DGKα [4]; at human DGKζ; in assay [3]) were 0.77 µM, 7.8 µM and 1.7 µM, respectively. The values for the EC50 (in assay [2] (setting [9]); in the assay with naïve human CD8 T cells) were 0.16 µM and 0.092 µM, respectively.

As to `CCO[C@H]1CN(c2nc(=O)n(C)c3ccc(C#N)nc23)CC[C@@H]1Oc1ccccc1` (relative stereo) [Example 403, trans-4-(3-Ethoxy-4-phenoxypiperidin-1-yl)-1-methyl-2-oxo-1,2-dihydropyrido[3,2-d] pyrimidine-6-carbonitrile], the results for the half-inhibitory concentration (IC50) at Human DGKα(9-727) and at full length human DGKζ were 19 µM and 5.3 µM, respectively. In addition, the EC50 in assay [6] (read-out: DGK HWB (human whole blood pERK); human whole blood, CD8 positive population, anti-CD3 stimulation; top concentration 20 μM) is 11 µM.

As to `COc1ccc(-c2c(N3CCC(Oc4ccc(OC(F)(F)F)cc4)CC3)c3nc(C#N)ccc3n(C)c2=O)cn1` [Example 240, 7-(6-methoxypyridin-3-yl)-5-methyl-6-oxo-8-(4-(4-(trifluoromethoxy)phenoxy)piperidin-1-yl)-5,6-dihydro-1,5-naphthyridine-2-carbonitrile], the EC50 is 5.3 µM in assay [1] (setting [7]), 1 µM in assay [2] (read-out: HuCD8 INFG) and 0.58 µM in assay [3].

Turning to `CCO[C@H]1CN(c2cc(=O)n(C)c3ccc(C#N)nc23)CC[C@@H]1OCc1cccc(C(F)(F)F)c1` [Example 381, 8-((3S,4S)-3-ethoxy-4-((3-(trifluoromethyl)benzyl)oxy)piperidin-1-yl)-5-methyl-6-oxo-5,6-dihydro-1,5-naphthyridine-2-carbonitrile], the values for the IC50 on Human DGKα(9-727) and on full length human DGKζ were 0.31 µM and 7.4 µM, respectively. In addition, the EC50 in assay [6] (Homo sapiens, CD8 positive, human whole blood, CD8 positive population, anti-CD3 stimulation; top concentration 20 μM; read-out: DGK HWB (human whole blood pERK)) turned out to be 0.24 µM.

With `Cn1c(=O)cc(N2CCC(Oc3ccc(OC(F)(F)F)cc3)CC2)c2nc(C#N)ccc21` [Example 52, 5-methyl-6-oxo-8-(4-(4-(trifluoromethoxy)phenoxy)piperidin-1-yl)-5,6-dihydro-1,5-naphthyridine-2-carbonitrile], the IC50 came to 0.8 µM at DGKα [4], 3.8 µM at human DGKζ and 0.15 µM in assay [3]. Also, the values for the EC50 in assay [1] (setting [10]) and in [2] (setting [9]) were 2.7 µM and 1 µM, respectively.

For `CC(C)O[C@@H]1CN(c2cc(=O)n(C)c3ccc(C#N)nc23)CC[C@H]1Oc1cccc(C(F)(F)F)c1` (relative stereo) [Example 395, trans-8-(3-Isopropoxy-4-(3-(trifluoromethyl)phenoxy)piperidin-1-yl)-5-methyl-6-oxo-5,6-dihydro-1,5-naphthyridine-2-carbonitrile], the concentration for half-maximal inhibition (IC50) on Human DGKα(9-727) came out at 0.32 µM; at full length human DGKζ, 0.069 µM. For the same compound, the EC50 in [6] (human whole blood, CD8 positive population, anti-CD3 stimulation; top concentration 20 μM; read-out: DGK HWB (human whole blood pERK)) turned out to be 0.91 µM.
